Experimental data reported in patent US20250241894A1, “TREATMENT OF MENTAL DISORDERS” (GH RESEARCH IRELAND LIMITED, priority 2022, published 2025).

Assays:
[1] = system: Salmonella typhimurium (TA98, TA100, TA1535 and TA1537); experiment: Bacterial mutation test with and without S-9; type: cell-based; conditions: up to 5000 μg/plate, absence and presence of S-9
Description: (§1) These conditions included treatments at concentrations up to 5000 μg/plate (the maximum recommended concentration according to current regulatory guidelines), in the absence and in the presence of a rat liver metabolic activation system (S-9).

[2] = system: Escherichia coli (WP2 uvrA pKM101); experiment: Bacterial mutation test with and without S-9; type: cell-based; conditions: up to 5000 μg/plate, absence and presence of S-9
Description: as §1

[3] = system: patients with treatment-resistant major depressive disorder (TRD); experiment: Phase 1/2 clinical trial of inhaled 5-MeO-DMT in TRD: Part A single dose 12 mg or 18 mg; Part B individualized dosing regimen (IDR) 6, 12, 18 mg in a single day
Description: Patients were assigned to different groups. In the context of the present invention, the group who received a single, 12 mg dose and the group who underwent an intra-day individualized dosing regimen (IDR) that allowed for multiple, escalating doses (6 mg, 12 mg and 18 mg) within a single day, driven by the intensity of the patient-reported psychedelic experience are of interest.
This trial was designed in two parts. Part A was an open-label, single-arm, single-dose Phase 1 trial with two dose levels (12 mg (n=4) and 18 mg (n=4)). […] The primary endpoint of Part B was to assess the effects on the severity of depression, as assessed by the proportion of patients in remission on day seven after dosing, defined as a MADRS total score of less than or equal to 10.

[4] = 12 mg n=4, 2 hours, baseline 16

SMILES: COc1ccc2[nH]cc(CCN(C)C)c2c1 [5-MeO-DMT]
- Mutation induction [1]: did not induce mutation
- Mutation induction [2]: did not induce mutation
- MADRS Suicidal Thoughts improvement ([3]; 12 mg n=4, 2 hours, baseline 8): 5 points
- MADRS Inner Tension improvement ([3]; 12 mg n=4, 2 hours, baseline 13): 11 points
- MADRS Concentration Difficulties improvement [3, 4]: 9 points
- MADRS Inability to Feel improvement [3, 4]: 7 points
- MADRS Lassitude improvement [3, 4]: 6 points
- MADRS Pessimistic Thoughts improvement [3, 4]: 8 points
- BPRS Blunted Affect improvement ([3]; 12 mg n=4, 3 hours, baseline 11): 3 points
- BPRS Emotional Withdrawal improvement ([3]; 12 mg n=4, 3 hours, baseline 13): 2 points
- BPRS Tension improvement ([3]; 12 mg n=4, 3 hours, baseline 14): 5 points
- BPRS Guilt Feelings improvement ([3]; 12 mg n=4, 3 hours, baseline 18): 9 points
- BPRS Anxiety improvement ([3]; 12 mg n=4, 3 hours, baseline 25): 14 points
- MADRS Suicidal Thoughts improvement ([3]; 12 mg n=4, Day 1, baseline 8): 3 points
- BPRS Blunted Affect improvement ([3]; 12 mg n=4, Day 1, baseline 11): 5 points
- MADRS Reduced Sleep improvement ([3]; 12 mg n=4, Day 1, baseline 12): 2 points
- BPRS Emotional Withdrawal improvement ([3]; 12 mg n=4, Day 1, baseline 13): 5 points
- MADRS Inner Tension improvement ([3]; 12 mg n=4, Day 1, baseline 13): 10 points
- BPRS Tension improvement ([3]; 12 mg n=4, Day 1, baseline 14): 8 points
- MADRS Concentration Difficulties improvement ([3]; 12 mg n=4, Day 1, baseline 16): 14 points
- MADRS Inability to Feel improvement ([3]; 12 mg n=4, Day 1, baseline 16): 15 points
- MADRS Lassitude improvement ([3]; 12 mg n=4, Day 1, baseline 16): 16 points
- MADRS Pessimistic Thoughts improvement ([3]; 12 mg n=4, Day 1, baseline 16): 9 points
- BPRS Guilt Feelings improvement ([3]; 12 mg n=4, Day 1, baseline 18): 13 points
- BPRS Anxiety improvement ([3]; 12 mg n=4, Day 1, baseline 25): 19 points
- MADRS Suicidal Thoughts improvement ([3]; 12 mg n=4, Day 7, baseline 8): 1 points
- BPRS Blunted Affect improvement ([3]; 12 mg n=4, Day 7, baseline 11): 6 points
- MADRS Reduced Sleep improvement ([3]; 12 mg n=4, Day 7, baseline 12): 6 points
- BPRS Emotional Withdrawal improvement ([3]; 12 mg n=4, Day 7, baseline 13): 7 points
- MADRS Inner Tension improvement ([3]; 12 mg n=4, Day 7, baseline 13): 8 points
- BPRS Tension improvement ([3]; 12 mg n=4, Day 7, baseline 14): 8 points
- MADRS Concentration Difficulties improvement ([3]; 12 mg n=4, Day 7, baseline 16): 13 points
- MADRS Inability to Feel improvement ([3]; 12 mg n=4, Day 7, baseline 16): 15 points
- MADRS Lassitude improvement ([3]; 12 mg n=4, Day 7, baseline 16): 13 points
- MADRS Pessimistic Thoughts improvement ([3]; 12 mg n=4, Day 7, baseline 16): 8 points
- BPRS Guilt Feelings improvement ([3]; 12 mg n=4, Day 7, baseline 18): 13 points
- BPRS Anxiety improvement ([3]; 12 mg n=4, Day 7, baseline 25): 19 points
- MADRS Suicidal Thoughts improvement ([3]; IDR n=8, 2 hours, baseline 11): 8 points
- MADRS Inner Tension improvement ([3]; IDR n=8, 2 hours, baseline 26): 15 points
- MADRS Lassitude improvement ([3]; IDR n=8, 2 hours, baseline 27): 17 points
- MADRS Pessimistic Thoughts improvement ([3]; IDR n=8, 2 hours, baseline 28): 21 points
- MADRS Concentration Difficulties improvement ([3]; IDR n=8, 2 hours, baseline 30): 19 points
- MADRS Inability to Feel improvement ([3]; IDR n=8, 2 hours, baseline 36): 24 points
- BPRS Emotional Withdrawal improvement ([3]; IDR n=8, 3 hours, baseline 13): 5 points
- BPRS Blunted Affect improvement ([3]; IDR n=8, 3 hours, baseline 15): 4 points
- BPRS Tension improvement ([3]; IDR n=8, 3 hours, baseline 16): 5 points
- BPRS Guilt Feelings improvement ([3]; IDR n=8, 3 hours, baseline 34): 20 points
- BPRS Anxiety improvement ([3]; IDR n=8, 3 hours, baseline 37): 18 points
- MADRS Suicidal Thoughts improvement ([3]; IDR n=8, Day 1, baseline 11): 10 points
- BPRS Emotional Withdrawal improvement ([3]; IDR n=8, Day 1, baseline 13): 5 points
- BPRS Blunted Affect improvement ([3]; IDR n=8, Day 1, baseline 15): 7 points
- BPRS Tension improvement ([3]; IDR n=8, Day 1, baseline 16): 5 points
- MADRS Reduced Sleep improvement ([3]; IDR n=8, Day 1, baseline 25): 13 points
- MADRS Inner Tension improvement ([3]; IDR n=8, Day 1, baseline 26): 20 points
- MADRS Lassitude improvement ([3]; IDR n=8, Day 1, baseline 27): 22 points
- MADRS Pessimistic Thoughts improvement ([3]; IDR n=8, Day 1, baseline 28): 24 points
- MADRS Concentration Difficulties improvement ([3]; IDR n=8, Day 1, baseline 30): 29 points
- BPRS Guilt Feelings improvement ([3]; IDR n=8, Day 1, baseline 34): 23 points
- MADRS Inability to Feel improvement ([3]; IDR n=8, Day 1, baseline 36): 34 points
- BPRS Anxiety improvement ([3]; IDR n=8, Day 1, baseline 37): 21 points
- MADRS Suicidal Thoughts improvement ([3]; IDR n=8, Day 7, baseline 11): 8 points
- BPRS Emotional Withdrawal improvement ([3]; IDR n=8, Day 7, baseline 13): 5 points
- BPRS Blunted Affect improvement ([3]; IDR n=8, Day 7, baseline 15): 7 points
- BPRS Tension improvement ([3]; IDR n=8, Day 7, baseline 16): 6 points
- MADRS Reduced Sleep improvement ([3]; IDR n=8, Day 7, baseline 25): 16 points
- MADRS Inner Tension improvement ([3]; IDR n=8, Day 7, baseline 26): 14 points
- MADRS Lassitude improvement ([3]; IDR n=8, Day 7, baseline 27): 24 points
- MADRS Pessimistic Thoughts improvement ([3]; IDR n=8, Day 7, baseline 28): 25 points
- MADRS Concentration Difficulties improvement ([3]; IDR n=8, Day 7, baseline 30): 21 points
- BPRS Guilt Feelings improvement ([3]; IDR n=8, Day 7, baseline 34): 24 points
- MADRS Inability to Feel improvement ([3]; IDR n=8, Day 7, baseline 36): 30 points
- BPRS Anxiety improvement ([3]; IDR n=8, Day 7, baseline 37): 20 points
- SAEs ([3]; Part A 12 mg and 18 mg): No SAEs
- Severity and outcome of ADRs ([3]; Part A 12 mg and 18 mg): mild and resolved spontaneously
- Proportion of patients in MADRS remission ([3]; Part A 12 mg n=4, day seven): 50%
- Further patients with MADRS clinical response ([3]; Part A 18 mg n=4, day seven): 25%
- Proportion of patients in MADRS remission ([3]; Part A 18 mg n=4, day seven): 25%
- Outcome of ADRs ([3]; Part B IDR): resolved spontaneously
- SAEs ([3]; Part B IDR): No SAEs
- Proportion of patients in MADRS remission (total score <=10) ([3]; Part B IDR n=8, day seven): 87.5%
